Test [1] concerns adrenalectomized rat. As to the kind of experiment: Mineralocorticoid antagonism in vivo, adrenalectomized rat assay (urinary Na/K). Conditions: for In vivo antagonist activity compared with corresponding 7α-propionylthio derivative (Controls A, B, C, D): same substituents at C-21. As for the experimental part: The bioassay for anti-mineralocorticoid activity was carried out as described for the assay of mineralocorticoid agonist activity by Ulick, Land and Chu, (Endocrinology 99:619, 1976), except that the control group received 1 μg of aldosterone per 100 g body weight and the experimental group received the test substance in addition. All results were expressed as ratio of control urinary Na/K to treatment urinary Na/K. The minimum effective dose of antagonist was defined as that amount of test substance required to block one-half of the effect of 1 μg. aldosterone/100 g body weight as measured by the ratio of control: treatment urinary Na/K.

The subject of test [2] is mineralocorticoid receptor of mammalian kidney. As to the kind of experiment: Mineralocorticoid receptor affinity (competition with 3H-aldosterone). The class given is binding. The conditions noted are these: for Corticosteroid Receptor Affinity % Mineralocorticoid: amount of aldosterone vs amount of steroid for 50% reduction in binding of 1.3×10^-9 M 3H-aldosterone, kidney cytosol, aldosterone = 100; for Affinity Mineralocorticoid:Androgen Ratio: ratio of mineralocorticoid to androgen receptor affinity (therapeutic index). As for the experimental part: Each assay tube contained 250 μl cytosol solution and 1,2-^3 H-aldosterone at a final steroid concentration of 1.3×10^-9 M. Standard curves were prepared in the range of 0.1 to 100 ng aldosterone and non-specific binding of 10^-5 M aldosterone was subtracted. The amount of steroid ligand required to effect 50% reduction in the binding of labeled aldosterone compared to the amount of aldosterone to effect the same reduction was expressed as a percentage.

[3] abbreviates: Rattus norvegicus, sc, subcutaneous, with 1 μg aldosterone per 100 g body weight, dose reducing urinary Na/K effect to one half, inactive = no antagonist activity at 250 μg/100 g, read-out: Mineralocorticoid antagonism Minimum effective dose.
[4] abbreviates: oral route, adrenalectomized rat, read-out: Mineralocorticoid antagonism Minimum effective dose oral.
The mark [5] stands for this setting: subcutaneous, with 1 μg aldosterone per 100 g body weight, dose reducing urinary Na/K effect to one half, inactive = no antagonist activity at 250 μg/100 g.

Like-named read-outs stand apart in the source and are kept apart here.

For `CC(=O)S[C@@H]1CC2=CC(=O)CC[C@]2(C)[C@H]2CC[C@@]3(C)[C@@H](CC[C@@]34CCC(=O)O4)[C@H]12` [Spironolactone, spironolactone, reference compound], the values for the ED50 in test [1] (setting [3]) and in test [1] (setting [4]) were 2.5 mg/kg and 10 mg/kg, respectively. The “Mineralocorticoid antagonism Minimum effective dose” value in test [1] (setting [5]) amounted to 250 μg/100 g. For the same compound, in test [2], the “Corticosteroid Receptor Affinity % Mineralocorticoid” value worked out at 18%.
Regarding `CC(=O)OCC(=O)[C@H]1CC[C@H]2[C@@H]3[C@H](SC(C)=O)CC4=CC(=O)CC[C@]4(C)[C@H]3CC[C@]12C` [Example 3, 7α-Acetylthio-21-acetoxy-4-pregnene-3,20-dione], the ED50 in test [1] (setting [3]) came out at 0.25 mg/kg. In addition, the “Dose of spironolactone relative to compound required for equivalent mineralocorticoid antagonist effect, oral” value in test [1] (oral route) is “four-fold”. The ED50 in test [1] (setting [4]) came out at 2.5 mg/kg. Moreover, in test [1], the “In vivo antagonist activity compared with corresponding 7α-propionylthio derivative (Controls A, B, C, D)” value was “always more active”. The “Effectiveness relative to spironolactone, subcutaneous” value in test [1] (subcutaneous route) is 10 times. Also, the “Mineralocorticoid antagonism Minimum effective dose” value in test [1] (setting [5]) is on record as 25 μg/100 g. Further, in test [2], the “Corticosteroid Receptor Affinity % Mineralocorticoid” value was found to be 65% and the “Affinity Mineralocorticoid:Androgen Ratio” value was 325. Moreover, in test [2] (mineralocorticoid:androgen affinity ratio relative to spironolactone), the “Affinity ratio index compared with spironolactone” value is recorded as around 40 times.
For the compound `CCCC(=O)OCC(=O)[C@H]1CC[C@H]2[C@@H]3[C@H](SC(=O)CC)CC4=CC(=O)CC[C@]4(C)[C@H]3CC[C@]12C` [Control C, 7α-Propionylthio-21-butyroxy-4-pregnene-3,20-dione, reference compound], the ED50 in test [1] (setting [3]) worked out at 1.5 mg/kg.
For the compound `CC(=O)S[C@@H]1CC2=CC(=O)CC[C@]2(C)[C@H]2CC[C@]3(C)[C@@H](C(=O)COC(=O)C(C)(C)C)CC[C@H]3[C@H]12` [Example 8], the ED50 in test [1] (setting [3]) came to 0.75 mg/kg. In test [2], the “Corticosteroid Receptor Affinity % Mineralocorticoid” value is 45% and the “Affinity Mineralocorticoid:Androgen Ratio” value came to 300.
In the case of `CCC(=O)S[C@@H]1CC2=CC(=O)CC[C@]2(C)[C@H]2CC[C@]3(C)[C@@H](C(C)=O)CC[C@H]3[C@H]12` [Control A, 7α-Propionylthio-4-pregnene-3,20-dione, reference compound], the ED50 in test [1] (setting [3]) worked out at 2 mg/kg.
On to `CC(=O)S[C@@H]1CC2=CC(=O)CC[C@]2(C)[C@H]2CC[C@]3(C)[C@@H](C(=O)CO)CC[C@H]3[C@H]12` [Example 2, 7α-Acetylthio-21-hydroxy-4-pregnene-3,20-dione], for which the ED50 in test [1] (setting [3]) was 0.75 mg/kg. Further, in test [2], the “Corticosteroid Receptor Affinity % Mineralocorticoid” value was determined as 35% and the “Affinity Mineralocorticoid:Androgen Ratio” value worked out at 175.
As for `CCCC(=O)OCC(=O)[C@H]1CC[C@H]2[C@@H]3[C@H](SC(C)=O)CC4=CC(=O)CC[C@]4(C)[C@H]3CC[C@]12C` [Example 5], the ED50 in test [1] (setting [3]) stood at 0.5 mg/kg. Further, the “In vivo antagonist activity compared with corresponding 7α-propionylthio derivative (Controls A, B, C, D)” value in test [1] was “always more active”. Further, in test [2], the “Corticosteroid Receptor Affinity % Mineralocorticoid” value is 60% and the “Affinity Mineralocorticoid:Androgen Ratio” value was found to be 300.
In the case of `CCC(=O)OCC(=O)[C@H]1CC[C@H]2[C@@H]3[C@H](SC(C)=O)CC4=CC(=O)CC[C@]4(C)[C@H]3CC[C@]12C` [Example 4], the ED50 in test [1] (setting [3]) amounted to 1 mg/kg. In test [2], the “Corticosteroid Receptor Affinity % Mineralocorticoid” value came to 38% and the “Affinity Mineralocorticoid:Androgen Ratio” value is given as 190.
With `CCC(=O)S[C@@H]1CC2=CC(=O)CC[C@]2(C)[C@H]2CC[C@]3(C)[C@@H](C(=O)COC(C)=O)CC[C@H]3[C@H]12` [Control B, 7α-Propionylthio-21-acetoxy-4-pregnene-3,20-dione, reference compound], the ED50 in test [1] (setting [3]) amounted to 1 mg/kg.
Take `CC(=O)OCC(=O)[C@@]1(O)CC[C@H]2[C@H]3[C@H]([C@@H](O)C[C@@]21C)[C@@]1(C)CCC(=O)C=C1C[C@H]3SC(C)=O` [Control E, 7α-Acetylthio-21-acetoxy-11β-dihydroxy-4-pregnene-3,20-dione, reference compound]: the “Mineralocorticoid antagonism Minimum effective dose” value in test [1] (setting [5]) was “inactive”.
Regarding `CC(=O)S[C@@H]1CC2=CC(=O)CC[C@]2(C)[C@H]2CC[C@]3(C)[C@@H](C(C)=O)CC[C@H]3[C@H]12` [Example 1, 7α-Acetylthio-4-pregnene-3,20-dione], in test [1] (setting [3]), the ED50 was 1 mg/kg. The “In vivo antagonist activity compared with corresponding 7α-propionylthio derivative (Controls A, B, C, D)” value in test [1] was “always more active”. In test [2], the “Corticosteroid Receptor Affinity % Mineralocorticoid” value is 43% and the “Affinity Mineralocorticoid:Androgen Ratio” value was 172.
Take `CCCCCCC(=O)OCC(=O)[C@H]1CC[C@H]2[C@@H]3[C@H](SC(=O)CC)CC4=CC(=O)CC[C@]4(C)[C@H]3CC[C@]12C` [Control D, 7α-Propionylthio-21-heptanoyloxy-4-pregnene-3,20-dione, reference compound]: the “Mineralocorticoid antagonism Minimum effective dose” value in test [1] (setting [5]) is “inactive”.
`CCCCC(=O)OCC(=O)[C@H]1CC[C@H]2[C@@H]3[C@H](SC(C)=O)CC4=CC(=O)CC[C@]4(C)[C@H]3CC[C@]12C` [Example 6]: the ED50 in test [1] (setting [3]) stood at 1.5 mg/kg. In addition, in test [2], the “Corticosteroid Receptor Affinity % Mineralocorticoid” value stood at 68% and the “Affinity Mineralocorticoid:Androgen Ratio” value was determined as 340.
As for `C[C@]12CCC(=O)C=C1CC[C@@H]1[C@@H]2[C@@H](O)C[C@]2(C=O)[C@@H](C(=O)CO)CC[C@@H]12` [Aldosterone, reference compound], the “Corticosteroid Receptor Affinity % Mineralocorticoid” value in test [2] is 100%.
Take `CCCCCCC(=O)OCC(=O)[C@H]1CC[C@H]2[C@@H]3[C@H](SC(C)=O)CC4=CC(=O)CC[C@]4(C)[C@H]3CC[C@]12C` [Example 7]: the ED50 in test [1] (setting [3]) is 0.75 mg/kg. In addition, in test [1], the “In vivo antagonist activity compared with corresponding 7α-propionylthio derivative (Controls A, B, C, D)” value is recorded as “always more active”. In addition, in test [2], the “Corticosteroid Receptor Affinity % Mineralocorticoid” value came out at 27% and the “Affinity Mineralocorticoid:Androgen Ratio” value came to 180.

(Values after patent US4603128A, “Mineralocorticoid hormone antagonists” (priority 1984, dated 1986).)
